These results are taken from ChEMBL document CHEMBL3627656 (Bioorg Med Chem, 2015).

Series [1] can be described thus: Apparent permeability across basolateral to apical side in human Caco2 cells at 1 uM after 2 hrs by LC-MS method. The format is ADME, cell-based. Particulars: Caco-2. For orientation: Caco-2 cells form a polarised layer with tight junctions and transporters.
For series [2], the target named is T1, Prostaglandin G/H synthase 1 (Ovis aries, UniProt P05979).
T1 sequence (P05979 whole entry): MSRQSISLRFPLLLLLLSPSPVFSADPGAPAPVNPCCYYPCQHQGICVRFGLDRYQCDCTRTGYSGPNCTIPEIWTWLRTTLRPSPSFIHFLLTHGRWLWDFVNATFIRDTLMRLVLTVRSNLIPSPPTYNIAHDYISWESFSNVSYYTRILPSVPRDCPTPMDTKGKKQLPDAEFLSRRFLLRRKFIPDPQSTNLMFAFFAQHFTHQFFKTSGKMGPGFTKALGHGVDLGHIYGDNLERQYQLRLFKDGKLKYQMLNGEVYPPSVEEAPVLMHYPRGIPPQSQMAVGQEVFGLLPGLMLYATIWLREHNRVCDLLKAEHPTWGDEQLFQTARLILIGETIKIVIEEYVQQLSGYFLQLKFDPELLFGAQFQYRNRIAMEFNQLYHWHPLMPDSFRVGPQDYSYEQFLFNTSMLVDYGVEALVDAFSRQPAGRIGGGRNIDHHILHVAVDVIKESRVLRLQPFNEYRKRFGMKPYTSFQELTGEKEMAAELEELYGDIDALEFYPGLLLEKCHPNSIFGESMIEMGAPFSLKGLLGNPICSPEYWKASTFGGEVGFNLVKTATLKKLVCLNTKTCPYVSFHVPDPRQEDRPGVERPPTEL
The experiment in a line: Inhibition of ovine COX-1 using arachidonic acid after 5 mins by colorimetric method.

Series [3] can be described thus: Lipophilicity, LogP of the compound at pH 7.4 by reverse-phase HPLC. The format is physicochemical. Particulars: buffer.
Series [4] can be described thus: Apparent permeability across apical to basolateral side in human Caco2 cells at 1 uM after 1 hr by LC-MS method. The format is ADME, cell-based. Particulars: Caco-2.
Series [5] in a line: Apparent permeability across apical to basolateral side in human Caco2 cells at 10 uM after 1 hr by LC-MS method. In kind it is ADME, cell-based. Conditions: Caco-2.
Series [6] is described as follows: Apparent permeability across basolateral to apical side in human Caco2 cells at 10 uM after 2 hrs […] by LC-MS method. In kind it is ADME, cell-based. Conditions: Caco-2.

With `COc1cccc(Oc2cc([N+](=O)[O-])ccc2NS(C)(=O)=O)c1`, the Papp B→A at 2 h, 1 µM in series [1] is 404 nm/s. Also, in series [2], the IC50 is above 100 µM. The logP in series [3] came out at 1.65. For the same compound, the Papp A→B at 1 h, 1 µM in series [4] stood at 427 nm/s. For the same compound, the Papp A→B at 1 h, 10 µM in series [5] was found to be 523 nm/s. Also, the Papp B→A at 2 h, 10 µM in series [6] was 519 nm/s.

Regarding `COc1ccccc1Oc1cc([N+](=O)[O-])ccc1NS(C)(=O)=O`, the Papp B→A at 2 h, 1 µM in series [1] amounted to 85 nm/s. Further, the IC50 in series [2] was above 100 µM. Besides, the logP in series [3] turned out to be 1.26. Further, in series [4], the Papp A→B at 1 h, 1 µM stood at 112 nm/s. The apical-to-basolateral permeability (Papp A→B) at 1 h, 10 µM in series [5] stood at 381 nm/s. In addition, the Papp B→A at 2 h, 10 µM in series [6] amounted to 254 nm/s.

In the case of `COc1ccc(Oc2cc([N+](=O)[O-])ccc2NS(C)(=O)=O)cc1`, the Papp B→A at 2 h, 1 µM in series [1] was determined as 68 nm/s. The compound also had an IC50 in series [2] above 100 µM. Moreover, the lipophilicity (logP) in series [3] stood at 1.41. The Papp A→B at 1 h, 1 µM in series [4] turned out to be 83 nm/s. The Papp A→B at 1 h, 10 µM in series [5] is 182 nm/s. Besides, the Papp B→A at 2 h, 10 µM in series [6] was 31 nm/s.

In series [2], `CS(=O)(=O)Nc1ccc([N+](=O)[O-])cc1Oc1ccccc1` [NIMESULIDE] came in with a half-inhibitory concentration (IC50) above 100 µM.

In general, Papp B→A refers to how fast a substance crosses the layer from the basolateral side. One may read the IC50 as the concentration needed to halve the response being measured. Lower therefore signals greater potency in that assay. By logP is commonly meant the decadic logarithm of the partition coefficient of the neutral form, usually between octanol and water. A lower logP goes with lower lipophilicity. Broadly, the Papp A→B is how fast a substance crosses the layer from the apical side.
